Test results from ChEMBL document CHEMBL1151291, “Antiviral activity of lignans” (J Nat Prod, 1998).
Converted amounts (≈) assume the structure as drawn.

Tests used:
[1] = system: Human alphaherpesvirus 1; assay: Antiviral activity against HSV1 infected in monkey CV-1 cells assessed as inhibition of plaque formation; type: functional, organism-based; settings: Human alphaherpesvirus 1, CV-1
[2] = Cytotoxicity against human primary amnion cells assessed as morphological changes by microscopic examination; type: functional
[3] = system: Human alphaherpesvirus 1; assay: Antiviral activity against HSV1 infected in human primary amnion cells assessed as inhibition of virus-induced pathogenic effect; type: functional
[4] = Therapeutic index, ratio of MTC for human primary amnion cells to lowest drug level causing inhibition of HSV1; settings: read-out: TI
[5] = system: Vesicular stomatitis virus; assay: Antiviral activity against VSV infected in BHK cells assessed as inhibition of plaque formation; type: functional, organism-based
[6] = Therapeutic index, ratio of inhibition of human H9 cells to EC50 for HIV1; type: cell-based; settings: read-out: TI
[7] = system: Human immunodeficiency virus 1; assay: Antiviral activity against HIV1 infected in human H9 cells assessed inhibition of viral replication; type: functional, organism-based; settings: Human immunodeficiency virus 1, H9
[8] = system: MT4; assay: Cytotoxicity against human MT4 cells; type: functional; settings: read-out: CD50 (the source's name)
[9] = system: Human immunodeficiency virus 1; assay: Antiviral activity against HIV1 infected in human MT4 cells; type: functional, organism-based; settings: Human immunodeficiency virus 1, MT4
[10] = system: Human immunodeficiency virus; assay: Antiviral activity against HIV assessed as reduction of viral protein production at 0.52 uM; type: functional; set-up: scale not given: the % may be the effect or the level left
[11] = system: Human immunodeficiency virus; assay: Antiviral activity against HIV assessed as reduction of viral protein production at 0.27 uM; type: functional; set-up: scale not given: the % may be the effect or the level left
[12] = system: Human immunodeficiency virus; assay: Antiviral activity against cross-resistant HIV mutant; type: functional; settings: Human immunodeficiency virus 1; read-out: ED50 (the source's name)
[13] = system: Murid betaherpesvirus 1; assay: Antiviral activity against Murine cytomegalovirus in mouse 3T3-L1 cells at 250 nM; type: functional; settings: Murid betaherpesvirus 1, 3T3-L1
[14] = system: Sindbis virus; assay: Antiviral activity against Sindbis virus in mouse 3T3-L1 cells at 250 nM; type: functional
[15] = system: Vesicular stomatitis virus; assay: Antiviral activity against VSV infected in rabbit RL-33 cells; type: functional
[16] = Cytotoxicity against rabbit RL33 cells; type: cell-based, Oryctolagus cuniculus
[17] = system: Murid betaherpesvirus 1; assay: Antiviral activity against Murine cytomegalovirus in mouse 3T3-L1 cells at 263 nM; type: functional; settings: Murid betaherpesvirus 1, 3T3-L1
[18] = system: Sindbis virus; assay: Antiviral activity against Sindbis virus in mouse 3T3-L1 cells at 273 nM; type: functional
[19] = system: Human immunodeficiency virus; assay: Antiviral activity against HIV; type: functional, organism-based; settings: Human immunodeficiency virus 1
[20] = Inhibition of human DNA polymerase alpha
[21] = system: Sindbis virus; assay: Antiviral activity against Sindbis virus in mouse 3T3-L1 cells at 241 nM; type: functional
[22] = system: Murid betaherpesvirus 1; assay: Antiviral activity against Murine cytomegalovirus in mouse 3T3-L1 cells at 241 nM; type: functional; settings: Murid betaherpesvirus 1, 3T3-L1

SMILES: COc1cc([C@@H]2c3cc4c(cc3[C@H](O)[C@H]3COC(=O)[C@H]23)OCO4)cc(OC)c1O
- IC50 [1]: 100 nM
- Activity [2]: >125 µM
- Activity [3]: 0.5 µM
- selectivity ratio [4]: 250
- IC50 [5]: 250 nM

SMILES: COc1ccc(C[C@H]2COC(=O)[C@@H]2Cc2ccc(O)c(O)c2)cc1OC
- selectivity ratio [6]: 9
- EC50 [7]: 420 nM

SMILES: COc1cc([C@@H]2c3cc4c(c(O[C@@H]5O[C@H](CO)[C@@H](O)[C@H](O)[C@H]5O)c3C[C@H]3COC(=O)[C@@H]32)OCO4)cc(OC)c1OC
- Activity [2]: 52 µM
- Activity [3]: 17 µM
- selectivity ratio [4]: 3

SMILES: COc1cc([C@H]2c3c(cc(OC)c(OC)c3OC)C[C@@H](C)[C@@H]2C)cc(OC)c1OC
- CC50 [8]: 34000 nM
- EC50 [9]: 3200 nM

SMILES: COc1cc([C@@H]2c3cc4c(cc3[C@@H](OC)[C@H]3COC(=O)[C@@H]23)OCO4)cc(OC)c1OC
- IC50 [1]: 900 nM
- IC50 [5]: 2300 nM

SMILES: COc1cc([C@@H]2c3cc4c(cc3[C@H](OC)[C@H]3COC(=O)[C@H]23)OCO4)cc(OC)c1OC
- IC50 [1]: 460 nM
- IC50 [5]: 930 nM

SMILES: COc1cc([C@@H]2c3cc4c(c(OC)c3C[C@H]3COC(=O)[C@@H]32)OCO4)cc(OC)c1OC
- IC50 [1]: 23 nM
- IC50 [5]: 23 nM

SMILES: COc1cc([C@H]2c3c(cc(OC)c(OC)c3OC)C[C@H]3CSC[C@@H]32)cc(OC)c1OC
- CC50 [8]: 58000 nM
- EC50 [9]: 800 nM

SMILES: COc1cc([C@H]2c3c(cc4c(c3OC)OCO4)C[C@H]3CSC[C@@H]32)cc(OC)c1OC
- CC50 [8]: 163000 nM
- EC50 [9]: 5100 nM

SMILES: COc1cc([C@@H]2c3cc4c(cc3C=C3COC(=O)[C@H]32)OCO4)cc(OC)c1OC
- IC50 [1]: 250 nM
- IC50 [5]: 250 nM

SMILES: COC(=O)[C@@H]1C(CO)=Cc2cc3c(cc2[C@H]1c1cc(OC)c(OC)c(OC)c1)OCO3
- IC50 [1]: 460 nM
- IC50 [5]: 460 nM

SMILES: COc1cc(C[C@@]2(O)C(=O)OC[C@@H]2Cc2ccc(OC)c(OC)c2)ccc1O
- Activity [10]: 60%
- Activity [11]: 60%

SMILES: COc1cc([C@@H]2c3cc4c(cc3[C@@H](OC)[C@H]3COC(=O)[C@H]23)OCO4)cc(OC)c1OC
- IC50 [1]: 900 nM
- IC50 [5]: 900 nM

SMILES: COc1ccc([C@H]2c3c(cc4c(c3OC)OCO4)C[C@H]3CSC[C@@H]32)cc1OC
- CC50 [8]: > 840000 nM
- EC50 [9]: 3300 nM

SMILES: COc1c(O)c(Br)c2c(c1OC)-c1c(c(Br)c(O)c(OC)c1OC)C[C@H](C)[C@H](C)C2
- EC50 [12]: 100 nM

SMILES: COc1c2c(cc3c1[C@H](c1ccc(OC(=O)c4ccccc4)c(O)c1)[C@H]1C(=O)OC[C@@H]1C3)OCO2
- CC50 [8]: > 840000 nM
- EC50 [9]: 5220 nM

SMILES: COc1c(O)c(Cl)c2c(c1OC)-c1c(c(Cl)c(O)c(OC)c1OC)C[C@H](C)[C@H](C)C2
- EC50 [12]: 100 nM

SMILES: COc1cc([C@@H]2c3cc4c(c(O)c3C[C@H]3COC(=O)[C@@H]32)OCO4)cc(OC)c1O
- Activity [2]: 200 µM
- Activity [3]: 0.05 µM
- inhibition at 0.25 µM [13]: 85%
- inhibition at 0.25 µM [14]: 6%
- selectivity ratio [4]: 4000

SMILES: COc1cc([C@@H]2c3cc4c(cc3[C@@H](O)[C@H]3COC(=O)[C@H]23)OCO4)cc(OC)c1O [4'-DEMETHYLEPIPODOPHYLLOTOXIN]
- Activity [2]: 13 µM
- Activity [3]: 13 µM
- selectivity ratio [4]: 1

SMILES: COc1cc([C@@H]2c3cc4c(cc3[C@H](O)[C@H]3COC[C@H]23)OCO4)cc(OC)c1OC [ANHYDROPODOPHYLLOL]
- Activity [2]: >200 µM
- Activity [3]: 0.25 µM
- selectivity ratio [4]: 800

SMILES: COc1cc(C[C@H]2C(=O)OC[C@@H]2Cc2ccc(OC)c(OC)c2)ccc1O [ARCTIGENIN]
- Activity [10]: 60%
- selectivity ratio [6]: 9
- Activity [11]: 60%
- EC50 [7]: 420 nM

SMILES: COc1cc([C@@H]2c3cc4c(cc3[C@H](O)[C@H]3COC(=O)[C@@H]23)OCO4)cc(OC)c1OC [AXL-1717]
- Activity [2]: 140 µM
- Activity [3]: 1.9 µM
- selectivity ratio [4]: 75

SMILES: COc1cc([C@@H]2c3cc4c(c(O)c3C[C@H]3COC(=O)[C@@H]32)OCO4)cc(OC)c1OC [BETA-PELTATIN A]
- Activity [2]: 120 µM
- Activity [3]: 0.36 µM
- selectivity ratio [4]: 333

SMILES: COc1cc([C@@H]2c3cc4c(cc3C[C@H]3COC(=O)[C@H]32)OCO4)cc(OC)c1OC [DEOXYPICROPODOPHYLLIN]
- IC50 [1]: 2000 nM
- IC50 [5]: 2000 nM

SMILES: COc1cc([C@@H]2c3cc4c(cc3C[C@H]3CSC(=O)[C@@H]32)OCO4)cc(OC)c1OC [DEOXYPODOPHYLLOTOXIN CYCLIC SULFIDE]
- Activity [2]: 37 µM
- Activity [3]: 12 µM
- selectivity ratio [4]: 3

SMILES: COc1cc([C@@H]2c3cc4c(cc3C[C@H]3CC(=O)C[C@@H]32)OCO4)cc(OC)c1OC [DEOXYPODOPHYLLOTOXIN CYCLOPENTANONE]
- Activity [2]: 122 µM
- Activity [3]: 49 µM
- selectivity ratio [4]: 2.5

SMILES: COc1cc([C@@H]2c3cc4c(cc3C[C@H]3COC(=O)[C@@H]32)OCO4)cc(OC)c1OC [DESOXYPODOPHYLLOTOXIN]
- IC50 [1]: 25 nM
- Activity [2]: >25 µM
- Activity [3]: 0.038 µM
- selectivity ratio [4]: 667
- IC50 [5]: < 25 nM

SMILES: COc1cc2c(O)c3c(c(-c4ccc5c(c4)OCO5)c2cc1OC)C(=O)OC3 [DIPHYLLIN]
- MIC [15]: 0.16 µM (≈ 0.0609 µg/mL)
- Activity [16]: 85 µM
- inhibition at 0.263 µM [17]: 11%
- inhibition at 0.273 µM [18]: 18%

SMILES: COc1cc([C@@H]2c3cc4c(cc3[C@@H](OC(C)=O)[C@H]3CSC(=O)[C@H]23)OCO4)cc(OC)c1OC [EPIPODOPHYLLOTOXIN ACETATE]
- IC50 [1]: 440 nM
- IC50 [5]: 220 nM

SMILES: COc1cc([C@@H]2c3cc4c(cc3[C@@H](O)[C@H]3COC(=O)[C@H]23)OCO4)cc(OC)c1OC [EPIPODOPHYLLOTOXIN]
- Activity [2]: 24 µM
- Activity [3]: 1.6 µM
- selectivity ratio [4]: 15

SMILES: COc1cc([C@@H]2c3cc4c(cc3[C@@H](O[C@@H]3O[C@@H]5CO[C@@H](C)O[C@H]5[C@H](O)[C@H]3O)[C@H]3COC(=O)[C@H]23)OCO4)cc(OC)c1O [ETOPOSIDE]
- Activity [2]: 100 µM
- Activity [3]: 85 µM
- selectivity ratio [4]: 1.2

SMILES: COc1cc2c(c(OC)c1OC)-c1c(cc3c(c1OC)OCO3)[C@H](OC(=O)c1ccccc1)[C@@](C)(O)[C@@H](C)C2 [GOMISIN G]
- IC50 [19]: 11 nM

SMILES: COc1cc2c(OC)c3c(c(-c4ccc5c(c4)OCO5)c2cc1OC)C(=O)OC3 [JUSTICIDIN A]
- MIC [15]: 0.65 µM (≈ 0.256 µg/mL)
- Activity [16]: 166 µM

SMILES: COc1cc2c(c(OC)c1OC)-c1c(cc3c(c1OC)OCO3)C[C@@H](C)[C@@H](C)C2 [KADSURANIN]
- IC50 [19]: 2000 nM

SMILES: COCc1cc2cc(OC)c(OC)cc2c(-c2ccc3c(c2)OCO3)c1C=O [PHYLLAMYRICIN B]
- IC50 [20]: 3500 nM

SMILES: COc1cc([C@@H]2c3cc4c(cc3[C@H](O)[C@H]3COC(=O)[C@H]23)OCO4)cc(OC)c1OC [PODOFILOX]
- IC50 [1]: 50 nM
- Activity [2]: 140 µM
- Activity [3]: 0.024 µM
- inhibition at 0.241 µM [21]: 3%
- inhibition at 0.241 µM [22]: 74%
- selectivity ratio [4]: 6000
- IC50 [5]: 100 nM

SMILES: COc1cc2cc3c(c(-c4ccc5c(c4)OCO5)c2cc1OC)COC3=O [RETROJUSTICIDIN B]
- IC50 [20]: 5500 nM

SMILES: COc1c2c(cc3c1-c1c(cc4c(c1OC)OCO4)C[C@H](C)[C@H](C)C3)OCO2 [SCHISANDRIN C]
- IC50 [19]: 3100 nM
